The supplement of paper PMC10307832

Assays:
Test in all cases: relative viability (nuclei count vs DMSO), 5 days (fraction); higher = more cells survive
RERF-LC-KJ = test system: RERF-LC-KJ
Summary of the method: (§1)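 Lung cancer cell lines, seeded in 1536-well plates, were treated the following day by pin tool with a single drug or with five library-drug doses (not always all listed) in √10 steps on top of a fixed anchor-drug dose. Cells were fixed and nuclei stained in one step after 5 days, and nuclei were counted. Relative viability is the nuclei count for treated wells divided by that for vehicle wells, reported as medians of duplicate plates.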

NCI-H727 = test system: NCI-H727
Summary of the method: as §1

NCI-H441 = test system: NCI-H441
Summary of the method: as §1

NCI-H2347 = test system: NCI-H2347
Summary of the method: as §1

NCI-H1792 = test system: NCI-H1792
Summary of the method: as §1

NCI-H1651 = test system: NCI-H1651
Summary of the method: as §1

NCI-H1755 = test system: NCI-H1755
Summary of the method: as §1

NCI-H650 = test system: NCI-H650
Summary of the method: as §1

NCI-H322M = test system: NCI-H322M
Summary of the method: as §1

PC-14 = test system: PC-14
Summary of the method: as §1

SW 900 = test system: SW 900
Summary of the method: as §1

NCI-H3122 = test system: NCI-H3122
Summary of the method: as §1

NCI-H596 = test system: NCI-H596
Summary of the method: as §1

LXF-289 = test system: LXF-289
Summary of the method: as §1

NCI-H1355 = test system: NCI-H1355
Summary of the method: as §1

NCI-H2170 = test system: NCI-H2170
Summary of the method: as §1

NCI-H1915 = test system: NCI-H1915
Summary of the method: as §1

NCI-H460 = test system: NCI-H460
Summary of the method: as §1

LCLC-103H = test system: LCLC-103H
Summary of the method: as §1

NCI-H522 = test system: NCI-H522
Summary of the method: as §1

NCI-H520 = test system: NCI-H520
Summary of the method: as §1

NCI-H661 = test system: NCI-H661
Summary of the method: as §1

SK-MES-1 = test system: SK-MES-1
Summary of the method: as §1

Structure (SMILES): CC(C)Oc1cc(Nc2nc(N[C@@H](C)c3ccc(F)cn3)ncc2Cl)n[nH]1 [AZ23] + NC(=O)Nc1cc(-c2cccc(F)c2)sc1C(=O)N[C@H]1CCCNC1 [AZD7762] (partner 0.2 µM)
- relative viability (RERF-LC-KJ; first compound 0.01 µM): 1.09
- relative viability (RERF-LC-KJ; first compound 0.03162 µM): 1.02
- relative viability (RERF-LC-KJ; first compound 0.3162 µM): 1.11
- relative viability (NCI-H727; first compound 0.01 µM): 0.628
- relative viability (NCI-H727; first compound 0.03162 µM): 0.802
- relative viability (NCI-H727; first compound 0.3162 µM): 0.597
- relative viability (NCI-H441; first compound 0.01 µM): 1.17
- relative viability (NCI-H441; first compound 0.03162 µM): 1.03
- relative viability (NCI-H441; first compound 0.3162 µM): 1.33
- relative viability (NCI-H2347; first compound 0.01 µM): 0.718
- relative viability (NCI-H2347; first compound 0.03162 µM): 0.818
- relative viability (NCI-H2347; first compound 0.3162 µM): 0.782
- relative viability (NCI-H1792; first compound 0.01 µM): 0.595
- relative viability (NCI-H1792; first compound 0.03162 µM): 0.515
- relative viability (NCI-H1792; first compound 0.3162 µM): 0.904
- relative viability (NCI-H1651; first compound 0.01 µM): 0.376
- relative viability (NCI-H1651; first compound 0.03162 µM): 0.541
- relative viability (NCI-H1651; first compound 0.3162 µM): 0.623
- relative viability (NCI-H1755; first compound 0.01 µM): 0.413
- relative viability (NCI-H1755; first compound 0.03162 µM): 0.471
- relative viability (NCI-H1755; first compound 0.3162 µM): 0.477
- relative viability (NCI-H650; first compound 0.01 µM): 0.954
- relative viability (NCI-H650; first compound 0.03162 µM): 1.14
- relative viability (NCI-H650; first compound 0.3162 µM): 1.12
- relative viability (NCI-H322M; first compound 0.01 µM): 0.468
- relative viability (NCI-H322M; first compound 0.03162 µM): 0.527
- relative viability (NCI-H322M; first compound 0.3162 µM): 0.614
- relative viability (PC-14; first compound 0.01 µM): 0.326
- relative viability (PC-14; first compound 0.03162 µM): 0.339
- relative viability (PC-14; first compound 0.3162 µM): 0.375
- relative viability (SW 900; first compound 0.01 µM): 0.556
- relative viability (SW 900; first compound 0.3162 µM): 0.74
- relative viability (NCI-H3122; first compound 0.01 µM): 1.22
- relative viability (NCI-H3122; first compound 0.03162 µM): 1.03
- relative viability (NCI-H3122; first compound 0.3162 µM): 1.02
- relative viability (NCI-H596; first compound 0.01 µM): 1.02
- relative viability (NCI-H596; first compound 0.03162 µM): 1.04
- relative viability (NCI-H596; first compound 0.3162 µM): 1.03
- relative viability (LXF-289; first compound 0.01 µM): 1.14
- relative viability (LXF-289; first compound 0.03162 µM): 1.24
- relative viability (LXF-289; first compound 0.3162 µM): 1.27
- relative viability (NCI-H1355; first compound 0.01 µM): 0.711
- relative viability (NCI-H1355; first compound 0.03162 µM): 0.808
- relative viability (NCI-H1355; first compound 0.3162 µM): 0.916
- relative viability (NCI-H2170; first compound 0.01 µM): 0.885
- relative viability (NCI-H2170; first compound 0.03162 µM): 0.887
- relative viability (NCI-H2170; first compound 0.3162 µM): 1.06
- relative viability (NCI-H1915; first compound 0.01 µM): 0.758
- relative viability (NCI-H1915; first compound 0.03162 µM): 0.737
- relative viability (NCI-H1915; first compound 0.3162 µM): 0.796
- relative viability (NCI-H460; first compound 0.01 µM): 0.722
- relative viability (NCI-H460; first compound 0.03162 µM): 0.751
- relative viability (NCI-H460; first compound 0.3162 µM): 0.799
- relative viability (LCLC-103H; first compound 0.01 µM): 0.875
- relative viability (LCLC-103H; first compound 0.03162 µM): 0.87
- relative viability (LCLC-103H; first compound 0.3162 µM): 0.881
- relative viability (NCI-H522; first compound 0.01 µM): 0.935
- relative viability (NCI-H522; first compound 0.03162 µM): 0.95
- relative viability (NCI-H522; first compound 0.3162 µM): 0.809

Structure (SMILES): C[C@@H]1CN(CC(=O)Nc2ccc3c(c2)Cc2cccc(-c4cc(=O)cc(N5CCOCC5)o4)c2S3)C[C@H](C)O1 + O=C(CCCCCCC(=O)Nc1ccccc1)NO [Vorinostat] (partner 1 µM)
- relative viability (RERF-LC-KJ; first compound 0.04 µM): 0.648
- relative viability (RERF-LC-KJ; first compound 0.1265 µM): 0.655
- relative viability (RERF-LC-KJ; first compound 0.4 µM): 0.738
- relative viability (RERF-LC-KJ; first compound 4 µM): 0.543
- relative viability (NCI-H727; first compound 0.04 µM): 1.03
- relative viability (NCI-H727; first compound 0.1265 µM): 1.17
- relative viability (NCI-H727; first compound 0.4 µM): 1.15
- relative viability (NCI-H727; first compound 4 µM): 1.13
- relative viability (NCI-H520; first compound 0.04 µM): 0.776
- relative viability (NCI-H520; first compound 0.1265 µM): 0.677
- relative viability (NCI-H520; first compound 0.4 µM): 0.656
- relative viability (NCI-H520; first compound 4 µM): 0.562
- relative viability (NCI-H441; first compound 0.04 µM): 0.718
- relative viability (NCI-H441; first compound 0.1265 µM): 0.777
- relative viability (NCI-H441; first compound 0.4 µM): 0.849
- relative viability (NCI-H441; first compound 4 µM): 0.625
- relative viability (NCI-H2347; first compound 0.04 µM): 0.564
- relative viability (NCI-H2347; first compound 0.1265 µM): 0.623
- relative viability (NCI-H2347; first compound 0.4 µM): 0.562
- relative viability (NCI-H2347; first compound 4 µM): 0.533
- relative viability (NCI-H1651; first compound 0.04 µM): 0.541
- relative viability (NCI-H1651; first compound 0.1265 µM): 0.535
- relative viability (NCI-H1651; first compound 0.4 µM): 0.538
- relative viability (NCI-H1651; first compound 4 µM): 0.559
- relative viability (NCI-H1755; first compound 0.04 µM): 0.759
- relative viability (NCI-H1755; first compound 0.1265 µM): 0.854
- relative viability (NCI-H1755; first compound 0.4 µM): 0.729
- relative viability (NCI-H1755; first compound 4 µM): 0.87
- relative viability (NCI-H650; first compound 0.04 µM): 0.364
- relative viability (NCI-H650; first compound 0.1265 µM): 0.386
- relative viability (NCI-H650; first compound 0.4 µM): 0.39
- relative viability (NCI-H650; first compound 4 µM): 0.414
- relative viability (NCI-H322M; first compound 0.04 µM): 0.883
- relative viability (NCI-H322M; first compound 0.1265 µM): 0.847
- relative viability (NCI-H322M; first compound 0.4 µM): 0.902
- relative viability (NCI-H322M; first compound 4 µM): 0.776
- relative viability (PC-14; first compound 0.04 µM): 0.75
- relative viability (PC-14; first compound 0.1265 µM): 0.689
- relative viability (PC-14; first compound 0.4 µM): 0.705
- relative viability (PC-14; first compound 4 µM): 0.61
- relative viability (SW 900; first compound 0.04 µM): 0.421
- relative viability (SW 900; first compound 0.1265 µM): 0.607
- relative viability (SW 900; first compound 0.4 µM): 0.534
- relative viability (SW 900; first compound 4 µM): 0.381
- relative viability (NCI-H661; first compound 0.04 µM): 0.689
- relative viability (NCI-H661; first compound 0.1265 µM): 0.805
- relative viability (NCI-H661; first compound 0.4 µM): 0.756
- relative viability (NCI-H661; first compound 4 µM): 0.773
- relative viability (NCI-H3122; first compound 0.04 µM): 1.01
- relative viability (NCI-H3122; first compound 0.1265 µM): 0.84
- relative viability (NCI-H3122; first compound 0.4 µM): 1
- relative viability (NCI-H3122; first compound 4 µM): 1.29
- relative viability (NCI-H596; first compound 0.04 µM): 0.627
- relative viability (NCI-H596; first compound 0.1265 µM): 0.707
- relative viability (NCI-H596; first compound 0.4 µM): 0.642
- relative viability (NCI-H596; first compound 4 µM): 0.567
- relative viability (LXF-289; first compound 0.04 µM): 0.534
- relative viability (LXF-289; first compound 0.1265 µM): 0.794
- relative viability (LXF-289; first compound 0.4 µM): 0.88
- relative viability (LXF-289; first compound 4 µM): 0.733
- relative viability (SK-MES-1; first compound 0.04 µM): 1.19
- relative viability (SK-MES-1; first compound 0.1265 µM): 1.07
- relative viability (SK-MES-1; first compound 0.4 µM): 1.01
- relative viability (SK-MES-1; first compound 4 µM): 0.855
- relative viability (NCI-H1355; first compound 0.04 µM): 0.552
- relative viability (NCI-H1355; first compound 0.1265 µM): 0.713
- relative viability (NCI-H1355; first compound 0.4 µM): 0.566
- relative viability (NCI-H1355; first compound 4 µM): 0.621
- relative viability (NCI-H2170; first compound 0.04 µM): 0.857
- relative viability (NCI-H2170; first compound 0.1265 µM): 0.811
- relative viability (NCI-H2170; first compound 0.4 µM): 0.798
- relative viability (NCI-H2170; first compound 4 µM): 0.742
- relative viability (NCI-H1915; first compound 0.04 µM): 0.434
- relative viability (NCI-H1915; first compound 0.1265 µM): 0.538
- relative viability (NCI-H1915; first compound 0.4 µM): 0.537
- relative viability (NCI-H1915; first compound 4 µM): 0.421
- relative viability (NCI-H460; first compound 0.04 µM): 0.69
- relative viability (NCI-H460; first compound 0.1265 µM): 0.738
- relative viability (NCI-H460; first compound 0.4 µM): 0.704
- relative viability (NCI-H460; first compound 4 µM): 0.203
- relative viability (LCLC-103H; first compound 0.04 µM): 0.743
- relative viability (LCLC-103H; first compound 0.1265 µM): 0.674
- relative viability (LCLC-103H; first compound 0.4 µM): 0.804
- relative viability (LCLC-103H; first compound 4 µM): 0.706
- relative viability (NCI-H522; first compound 0.04 µM): 0.539
- relative viability (NCI-H522; first compound 0.1265 µM): 0.696
- relative viability (NCI-H522; first compound 0.4 µM): 0.876
- relative viability (NCI-H522; first compound 4 µM): 0.766
